According to patent publication US9120749B2, “Quinoline derivatives and MELK inhibitors containing the same” (ONCOTHERAPY SCIENCE, INC., priority 2010, dated 2015):
Counter-ions that a name gives are not always drawn. Like-named read-outs stand apart in the source and are kept apart here.

How the values were obtained:
MELK = MELK (Homo sapiens, UniProt Q14680); assay: Kinase assay: MELK activity, phosphorylation of FITC-labeled histone H3 peptide measured by IMAP fluorescence polarization; format: biochemical; conditions: read-out: IC50 (μM) (kinase assay)
In short: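 Kinase reactions ran with or without test compound (final DMSO 1%) on a fluorescein-tagged H3 peptide. Progressive binding solution was added to terminate them. After a half-hour room-temperature incubation, polarization was measured.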

DU4475 cells = assay: Cell-based assay: anti-proliferative activity, Cell Counting Kit-8, 72 hours (DU4475); conditions: Homo sapiens, DU-4475
HT-1197 cells = assay: Cell-based assay: anti-proliferative activity, Cell Counting Kit-8, 72 hours (HT-1197, negative control without MELK expression); conditions: Homo sapiens, HT1197, 72 h, 72 hours
In short: (§1)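 First, lysates underwent western blotting with anti-MELK antibody to establish expression. Next, cells went into 96-well plates. Then candidate inhibitors were added. Finally, viability was determined by CCK-8 at 72 h and IC50 computed.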

T47D cells = assay: Cell-based assay: anti-proliferative activity, Cell Counting Kit-8, 72 hours (T47D); conditions: Homo sapiens, T47D, 72 h
In short: as §1

A549 cells = assay: Cell-based assay: anti-proliferative activity, Cell Counting Kit-8, 72 hours (A549); conditions: Homo sapiens, A549, 72 h, 72 hours
In short: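 A549 cells were seeded in 96-well plates and exposed to candidate inhibitors for 72 hours. Cell growth was then measured with Cell Counting Kit-8, and IC50 values were calculated from the resulting growth data.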

DU4475 = assay: Cell-based assay: anti-proliferative activity, Cell Counting Kit-8, 72 hours (DU4475); conditions: Homo sapiens, DU-4475, DU4475 cells
[1] = MELK kinase assay, IMAP fluorescence polarization, 50 micro-M ATP
[2] = HT1197 cells (negative control)
[3] = 50 micro-M ATP, FITC-labeled histone H3 peptide substrate, IMAP fluorescence polarization
[4] = HT1197 cells (negative control, no MELK expression)

Sequence of MELK (Q14680 whole entry, looked up): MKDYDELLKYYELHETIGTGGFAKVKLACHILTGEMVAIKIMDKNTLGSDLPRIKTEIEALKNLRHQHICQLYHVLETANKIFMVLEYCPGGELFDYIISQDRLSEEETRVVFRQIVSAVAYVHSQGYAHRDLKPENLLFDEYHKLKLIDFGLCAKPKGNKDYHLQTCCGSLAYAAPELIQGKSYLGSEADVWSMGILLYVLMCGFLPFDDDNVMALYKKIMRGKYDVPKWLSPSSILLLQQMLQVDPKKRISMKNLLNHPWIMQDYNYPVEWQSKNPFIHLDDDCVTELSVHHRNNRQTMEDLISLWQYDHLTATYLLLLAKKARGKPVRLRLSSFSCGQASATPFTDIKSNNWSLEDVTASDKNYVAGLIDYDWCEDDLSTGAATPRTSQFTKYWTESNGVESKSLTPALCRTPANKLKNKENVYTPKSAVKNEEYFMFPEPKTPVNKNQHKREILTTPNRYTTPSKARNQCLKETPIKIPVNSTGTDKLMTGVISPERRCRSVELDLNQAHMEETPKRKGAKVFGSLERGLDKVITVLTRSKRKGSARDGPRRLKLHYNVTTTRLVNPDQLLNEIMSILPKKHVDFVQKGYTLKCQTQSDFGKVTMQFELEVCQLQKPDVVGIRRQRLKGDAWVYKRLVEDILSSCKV

Row | SMILES | IC50 (MELK; [1]) | IC50 (DU4475 cells) | IC50 (HT-1197 cells; [2]) | IC50 (T47D cells) | IC50 (A549 cells) | IC50 (MELK; [3]) | IC50 (DU4475) | IC50 (HT-1197 cells; [4]) | IC50 (MELK)
1 | CC(=O)c1cnc2ccc(-c3cc(F)c(O)c(Cl)c3)cc2c1Nc1ccc(S(=O)(=O)N2CCN(C)CC2)cc1 [Example 894, 1-(6-(3-chloro-5-fluoro-4-hydroxy-phenyl)-4-((4-((4-methylpiperazin-1-yl)sulfonyl)phenyl)amino)quinolin-3-yl)ethanone hydrochloride] | 0.039 µM | 100 µM | 63 µM | 1.5 µM | 100 µM |  |  |  | 
2 | CC(=O)c1cnc2ccc(-c3cc(Cl)c(O)c(Cl)c3)cc2c1Nc1ccc(S(=O)(=O)N2CCN(C)CC2)cc1 [Example 887, 1-(6-(3,5-dichloro-4-hydroxyphenyl)-4-((4-((4-methylpiperazin-1-yl)sulfonyl)phenyl)amino)quinolin-3-yl)ethanone hydrochloride] |  | 100 µM | 100 µM | 1.3 µM | 100 µM |  |  |  | 
3 | O=C(c1cnc2ccc(-c3cc(Cl)c(O)c(Cl)c3)cc2c1Nc1ccc(N2CCNCC2)nc1)C1CC1 [Example 409, Cyclopropyl{6-(3,5-dichloro-4-hydroxyphenyl)-4-[6-(piperazin-1-yl)pyridin-3-ylamino]quinolin-3-yl}methanone] |  |  |  | 0.074 µM | 0.26 µM | 0.0017 µM | 0.098 µM | 1.6 µM | 
4 | COc1cc(-c2ccc3ncc(C(C)=O)c(N[C@H]4CC[C@H](CN(C)C)CC4)c3c2)cc(Cl)c1O [Example 392] |  |  |  | 0.25 µM | 0.27 µM | 0.0034 µM | 0.44 µM | 10 µM | 
5 | CN(C)CC(=O)N1CC2CC1CN2c1c(C(=O)C2CC2)cnc2ccc(-c3ccc(O)c(Cl)c3)cc12 (stereo not shown) [Example 464] |  |  |  | 6.6 µM | 5.5 µM | 0.051 µM | 3.4 µM | 17 µM | 
6 | NC[C@H]1CC[C@H](Nc2c(C(=O)C3CC3)cnc3ccc(-c4cc(F)c(O)c(Cl)c4)cc23)CC1 [Example 501, {4-[trans-4-(Aminomethyl)cyclohexylamino]-6-(3-chloro-5-fluoro-4-hydroxyphenyl)quinolin-3-yl}(cyclopropyl)methanone] |  |  |  | 0.061 µM | 0.57 µM |  | 0.031 µM | 1.2 µM | 0.046 µM
7 | O=C(c1cnc2ccc(-c3cc(Cl)c(O)c(Cl)c3)cc2c1Nc1cncc(CCN2CCCC2)c1)C1CC1 [Example 881, cyclopropyl(6-(3,5-dichloro-4-hydroxyphenyl)-4-((5-(2-(pyrrolidin-1-yl)ethyl)pyridin-3-yl)amino)quinolin-3-yl)methanone] | 0.0064 µM | 0.078 µM | 100 µM | 100 µM | 0.15 µM |  |  |  | 
8 | CN(C)CC1CCN(c2c([S+](C)[O-])cnc3ccc(-c4ccc(O)c(Cl)c4)cc23)CC1 (stereo not shown) [Example 466] |  |  |  | 0.67 µM | 1.9 µM | 0.016 µM | 1.1 µM | 6.7 µM | 
9 | O=C(c1cnc2ccc(-c3cc(F)c(O)c(Cl)c3)cc2c1Nc1cnc(N2CCNCC2)nc1)C1CC1 [Example 496, (6-(3-chloro-5-fluoro-4-hydroxyphenyl)-4-((2-(piperazin-1-yl)pyrimidin-5-yl)amino)quinolin-3-yl)(cyclopropyl)methanone] |  |  |  | 0.036 µM | 0.079 µM |  | 0.068 µM | 0.64 µM | 0.0048 µM
10 | COc1cc(-c2ccc3ncc(C(=O)C4CC4)c(Nc4ccc(Cn5ccnc5)cc4)c3c2)cc(Cl)c1O [Example 490, (4-(4-((1H-imidazol-1-yl)methyl)phenylamino)-6-(3-chloro-4-hydroxy-5-methoxyphenyl)quinolin-3-yl)(cyclopropyl)methanone] |  |  |  | 0.78 µM | 0.68 µM |  | 0.86 µM | 5.8 µM | 0.014 µM
11 | COc1cc(-c2ccc3ncc(C(=O)C4CC4)c(-c4ccc(C(=O)N5CCN(C)CC5)cc4)c3c2)cc(Cl)c1O [Example 476, (4-(6-(3-chloro-4-hydroxy-5-methoxyphenyl)-3-(cyclopropanecarbonyl)quinolin-4-yl)phenyl)(4-methylpiperazin-1-yl)methanone] |  |  |  | 0.23 µM | 0.31 µM |  | 0.5 µM | 2.1 µM | 0.0081 µM
12 | CN(C)Cc1ccc(Nc2c(S(C)(=O)=O)cnc3ccc(-c4cc(F)c(O)c(Cl)c4)cc23)cc1 [Example 399, 2-chloro-4-(4-(4-((dimethylamino)methyl)phenylamino)-3-(methylsulfonyl)quinolin-6-yl)-6-fluorophenol] |  |  |  | 0.27 µM | 0.47 µM | 0.016 µM | 0.16 µM | 1.9 µM | 
13 | CCOc1cc(-c2ccc3ncc(C(C)=O)c(N[C@H]4CC[C@H](N)CC4)c3c2)cc(Cl)c1O [Example 486] |  |  |  | 0.15 µM | 0.11 µM |  | 0.13 µM | 2.2 µM | 0.0021 µM
14 | COc1cc(-c2ccc3ncc(C(=O)C4CC4)c(Nc4ccc(CN5CCOCC5)cc4)c3c2)cc(Cl)c1O [Example 462] |  |  |  | 0.44 µM | 0.7 µM | 0.066 µM | 1.1 µM | 6 µM | 
15 | COc1cc(-c2ccc3ncc(C(=O)C4CC4)c(-c4cnc(N5CCN(C)CC5)nc4)c3c2)cc(Cl)c1O [Example 475, (6-(3-chloro-4-hydroxy-5-methoxyphenyl)-4-(2-(4-methylpiperazin-1-yl)pyrimidin-5-yl)quinolin-3-yl)(cyclopropyl)methanone] |  |  |  | 0.53 µM | 0.79 µM |  | 1.9 µM | 4.7 µM | 0.072 µM
16 | COc1cc(-c2ccc3ncc(C(=O)C4CC4)c(Nc4cnc(N5CCNCC5)nc4)c3c2)cc(Cl)c1O [Example 503, (6-(3-chloro-4-hydroxy-5-methoxyphenyl)-4-(2-(piperazin-1-yl)pyrimidin-5-ylamino)quinolin-3-yl)(cyclopropyl)methanone] |  |  |  | 0.24 µM | 0.37 µM |  | 0.46 µM | 1.1 µM | 0.0047 µM
17 | COc1cc(-c2ccc3ncc(C(C)=O)c(Nc4ccc(N5CCN(C)CC5)nc4)c3c2)cc(Cl)c1O [Example 483, 1-(6-(3-chloro-4-hydroxy-5-methoxyphenyl)-4-(6-(4-methylpiperazin-1-yl)pyridin-3-ylamino)quinolin-3-yl)ethanone] |  |  |  | 0.64 µM | 0.64 µM |  | 0.69 µM | 0.89 µM | 0.016 µM
18 | CN1CCN(c2ccc(Nc3c(C(=O)C4CC4)cnc4ccc(-c5cc(Cl)c(O)c(Cl)c5)cc34)cn2)CC1 [Example 472] |  |  |  | 0.3 µM | 0.18 µM |  | 0.11 µM | 5.7 µM | 0.023 µM
19 | CCN(CC)C1CCC(Nc2c(C(=O)C3CCCC3)cnc3ccc(-c4cc(F)c(O)c(Cl)c4)cc23)CC1 (stereo not shown) [Example 386, (6-(3-chloro-5-fluoro-4-hydroxyphenyl)-4-(4-(diethylamino)cyclohexylamino)quinolin-3-yl)(cyclopentyl)methanone] |  |  |  | 0.41 µM | 0.4 µM | 0.0092 µM | 0.29 µM | 0.78 µM | 
20 | CN1CCN(Cc2ccc(Nc3c(C(=O)C4CC4)cnc4ccc(-c5cc(Cl)c(O)c(Cl)c5)cc34)cc2)CC1 [Example 397, Cyclopropyl{6-(3,5-dichloro-4-hydroxyphenyl)-4-[4-((4-methylpiperazin-1-yl)methyl)phenylamino]quinolin-3-yl}methanone] |  |  |  | 0.33 µM | 0.15 µM | 0.0076 µM | 0.088 µM | 5.2 µM | 
21 | C[S+]([O-])c1cnc2ccc(-c3ccc(O)c(Cl)c3)cc2c1N[C@H]1CC[C@H](N)CC1 (stereo partly shown) [Example 499] |  |  |  | 2.7 µM | 9.7 µM |  | 2.5 µM | 18 µM | 0.036 µM
22 | N#Cc1ncc(-c2ccc3ncc(C(=O)C4CC4)c(Nc4ccc(CN5CCOCC5)cc4)c3c2)cn1 [Example 461] |  |  |  | 0.17 µM | 1.6 µM | 0.015 µM | 0.41 µM | 2 µM | 
23 | CN(C)C[C@H]1CC[C@H](Nc2c(S(C)(=O)=O)cnc3ccc(-c4cc(F)c(O)c(Cl)c4)cc23)CC1 [Example 423] |  |  |  | 0.42 µM | 0.93 µM | 0.0063 µM | 0.31 µM | 2.4 µM | 
24 | COc1cc(-c2ccc3ncc(C(=O)C4CC4)c(-c4ccc(N5CCN(C)CC5)cc4)c3c2)cc(Cl)c1O [Example 438, (6-(3-chloro-4-hydroxy-5-methoxyphenyl)-4-(4-(4-methylpiperazin-1-yl)phenyl)quinolin-3-yl)(cyclopropyl)methanone] |  |  |  | 0.39 µM | 0.25 µM | 0.018 µM | 0.49 µM | 6.5 µM | 
25 | CN1CCN(c2ccc(Nc3c(C(=O)C4CC4)cnc4ccc(-c5cnc(C#N)nc5)cc34)cn2)CC1 [Example 469] |  |  |  | 0.18 µM | 0.99 µM |  | 0.43 µM | 1.4 µM | 0.0015 µM
